Assay results as given in patent US5912405A, “Enhancers such as acetosyringone” (Novo Nordisk A/S, priority 1994, dated 1999).

Assays:
Type in all cases: biochemical
[1] = biological target: T1, Coprinus cinereus peroxidase (CiP) (Coprinopsis cinerea, UniProt P28314); assay: Initial bleaching of Direct Blue 1 with Coprinus cinereus peroxidase and enhancers; details: 5 μM enhancer, 20 μM H2O2, 30° C.
T1 construct: made in house
T1 sequence (P28314 21-363): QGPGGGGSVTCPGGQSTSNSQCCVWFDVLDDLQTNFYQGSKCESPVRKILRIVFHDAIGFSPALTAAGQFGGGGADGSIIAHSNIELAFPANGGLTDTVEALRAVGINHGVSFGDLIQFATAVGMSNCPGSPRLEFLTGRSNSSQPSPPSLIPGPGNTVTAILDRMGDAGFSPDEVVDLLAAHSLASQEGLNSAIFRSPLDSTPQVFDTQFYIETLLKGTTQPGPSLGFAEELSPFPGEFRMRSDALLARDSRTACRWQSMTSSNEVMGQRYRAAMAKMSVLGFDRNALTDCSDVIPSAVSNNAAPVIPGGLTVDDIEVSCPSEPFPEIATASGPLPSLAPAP
Procedure: A Coprinus cinereus peroxidase (CiP), obtained as described in WO 9412621 was used.
Dilutions of CiP were made in a solution of 0.15 gram/l of Triton X-405.
The bleaching rate of Direct Blue 1 (DB1) by purified CiP was determined using the following conditions: […]
Reagents were mixed in a thermostated cuvette at 30° C. and the bleaching was started by addition of hydrogen peroxide. The bleaching was detected spectrophotometrically at 610 nm, which is the wavelength of the absorption peak of DB1. Bleaching was followed for 1 minute, and the initial reduction in absorbance, --ΔmAbs/minute, was determined.

[2] = biological target: T2, Coprinus cinereus laccase (Coprinopsis cinerea, UniProt Q9Y780); assay: Bleaching of Direct Blue 1 using Coprinus cinereus laccase with/without enhancing agents at pH 5.5-8.5; details: C. cinereus laccase 1 mg/l, 10 μM enhancing agent, 30° C.
T2 sequence (Q9Y780 19-539): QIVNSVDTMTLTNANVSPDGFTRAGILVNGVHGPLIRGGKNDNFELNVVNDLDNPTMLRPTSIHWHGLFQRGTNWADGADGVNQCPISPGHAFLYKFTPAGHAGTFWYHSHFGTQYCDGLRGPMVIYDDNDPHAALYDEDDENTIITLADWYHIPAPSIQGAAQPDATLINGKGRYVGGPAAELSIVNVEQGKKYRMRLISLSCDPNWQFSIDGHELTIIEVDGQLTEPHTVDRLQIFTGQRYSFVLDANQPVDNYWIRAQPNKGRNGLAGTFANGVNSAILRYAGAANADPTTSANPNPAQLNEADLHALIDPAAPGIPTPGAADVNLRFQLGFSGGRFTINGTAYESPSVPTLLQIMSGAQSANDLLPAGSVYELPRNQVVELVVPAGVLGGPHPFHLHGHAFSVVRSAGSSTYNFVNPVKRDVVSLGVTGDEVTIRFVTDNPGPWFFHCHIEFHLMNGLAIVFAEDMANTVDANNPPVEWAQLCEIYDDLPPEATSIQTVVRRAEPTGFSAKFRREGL
Procedure: Bleaching of the dye Direct Blue 1 at various pH values was conducted using Coprinus cinereus laccase and one of the following enhancing agents:
The laccase was obtained in the following way: Coprinus cinereus (IFO 30116--freely available to the public from Institute of Fermentation, Osaka (IFO) under the indicated deposit number) was inoculated from a PDA agar slant (PDA: 39 g/l potato dextrose agar) into a 100 ml shake flask containing medium A (Medium A is described in Example 3). The culture was cultivated for 6 days at 26° C. and 100 rpm. A 10-liter fermentor containing medium A was inoculated with the 100 ml culture broth. The fermentation ran for 6 days at 26° C. and 100 rpm. The culture broth was filtrated and concentrated by ultrafiltration. Further purification was carried out using hydrophobic interaction chromatography followed by anionic exchange chromatography. This process resultated in a preparation with a laccase activity of 3.6 LACU/ml. The estimated purity was >80% on a protein basis.
The bleaching rate of DB1 was determined using the owing conditions: […]
Reagents were mixed in a 1 ml thermostated cuvette at 30° C. and the bleaching was started by addition of the laccase.
The bleaching was followed spectrophotometrically at 610 nm, which is the wavelength of the absorption peak of DB1 with readings every 5 sec. for a period of 5 minutes. The initial bleaching rate was determined from the first linear part of the absorbance curve.

[3] = biological target: T2, Coprinus cinereus laccase; assay: Bleaching of gradually added Acid Blue 45 with Coprinus cinereus laccase with and without enhancing agent; details: phosphate/borate buffer pH 10; 35° C.; laccase 10 mg/l; acetosyringone 10 μM
Procedure: To simulate such a process, however, a magnetically stirred beaker was used as the reaction vessel and dye was added gradually from a stock solution (using a Metrohm 725 dosimat). The solution was monitored spectrophotometrically using a Zeiss multichannel spectrometer (MCS) equipped with a fibre-optics immersion probe.
Stock solutions of acetosyringone was prepared in a suitable water/ethanol mixture. Stock solutions of the anthraquinone dye Acid Blue 45 were made with water.
The laccase was recovered from a 10-liter fermentation of Coprinus cinereus (IFO 30116) as described in Example 4.
The following conditions were used in the experiment:
Medium and pH: […]/50 mM phosphate/borate buffer at pH 10
Acetosyringone (when applicable): 10 μM
Dye addition program: linear addition at a rate of ca 0.34 bs/40 min, referring to the absorbance of Acid Blue 45 at its maximum absorbance wavelength (590 nm for Acid Blue 45).
The following symbols are used: (I): Only dye addition; (II): Dye addition in the presence of Laccase; (III): Dye addition in the presence of Laccase+acetosyringone.

Trametes villosa laccase = biological target: T3, Trametes villosa laccase (Trametes villosa, UniProt Q99044); assay: Bleaching of Direct Blue 1 with Trametes villosa laccase with and without enhancing agents; details: 10 μM enhancer, 30° C.
T3 construct: made in house; host or cells: Trametes villosa CBS 678.70 (native producer), purified from culture broth
T3 sequence (Q99044 22-520): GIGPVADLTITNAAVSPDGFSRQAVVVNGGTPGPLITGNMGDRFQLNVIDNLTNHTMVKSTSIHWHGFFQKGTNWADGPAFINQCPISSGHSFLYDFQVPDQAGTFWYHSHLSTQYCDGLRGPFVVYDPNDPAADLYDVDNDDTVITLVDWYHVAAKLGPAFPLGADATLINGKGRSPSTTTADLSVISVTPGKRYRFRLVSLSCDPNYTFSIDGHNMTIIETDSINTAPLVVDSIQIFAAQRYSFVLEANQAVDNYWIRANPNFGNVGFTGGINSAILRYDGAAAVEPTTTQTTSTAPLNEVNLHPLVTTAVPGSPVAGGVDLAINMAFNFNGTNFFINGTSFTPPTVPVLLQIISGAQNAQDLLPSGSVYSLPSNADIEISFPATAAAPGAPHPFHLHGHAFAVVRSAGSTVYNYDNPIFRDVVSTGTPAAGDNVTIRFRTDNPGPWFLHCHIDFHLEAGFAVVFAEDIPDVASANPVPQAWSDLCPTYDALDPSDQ
Procedure: Laccase obtained from Trametes villosa: 800 ml culture broth of Trametes villosa, CBS 678.70, was filtered with filter aid to give a clear filtrate, which was concentrated and washed by ultrafiltration on a membrane with a cut-off of 6-8 kDa. One ml samples of concentrated preparation was applied onto a Q-Sepharose HP column (Pharmacia, Sweden) equilibrated with 0.1 M fosfate pH 7, and the laccase was eluted with a flat NaCl gradient around 0.25 M. Fractions with laccase activity from 10 runs were pooled and concentrated by ultrafiltration to an activity of 500 LACU/ml.
The following conditions were used: […]
Reagents were mixed in a 1 cm thermostated cuvette at 30° C. and the bleaching was started by addition of enzyme.
The bleaching was detected spectrophotometrically at 610 nm, which is the absorption peak of DB1. After 5 sec. bleaching was followed for 4 minutes.
Bleaching of Direct Blue 1 with Trametes villosa laccase, obtained as described above, at pH 5.5 (1.6 mg/l) and pH 7.0 (16 mg/l): […]

COc1cc(C(C)=O)cc(OC)c1O [acetosyringone] was tested, and the “Initial Bleaching of Direct Blue 1 with CiP” value ([1]; pH 8.5, 0.08 mg/l CiP) was 239 -ΔmAbs/minute, the “Initial Bleaching of Direct Blue 1 with CiP” value ([1]; pH 10.5, 0.16 mg/l CiP) was 1 -ΔmAbs/minute and the “Initial bleaching rate of DB1” value ([2]; pH 5.5) was 28 -ΔmAbs/minute. The “Initial bleaching rate of DB1” value ([2]; pH 7.0) was 94 -ΔmAbs/minute, the “Initial bleaching rate of DB1” value ([2]; pH 8.5) was 50 -ΔmAbs/minute and the “Bleaching effect on gradually added Acid Blue 45 (FIG. 1)” value [3] was “enhanced”. The “DB1 bleaching in 4 minutes” value (Trametes villosa laccase; pH 5.5, Trametes villosa laccase 1.6 mg/l) was 447 -ΔmAbs/4 min and the “DB1 bleaching in 4 minutes” value (Trametes villosa laccase; pH 7.0, Trametes villosa laccase 16 mg/l) was 242 -ΔmAbs/4 min.
